In brackets after ≈: the same amount, converted by molar mass.
Key:
[1] = target: Cholinesterase (Homo sapiens, UniProt P06276); assay: Inhibition of human BChE using butyrylthiocholine iodide as substrate incubated for 15 mins by spectrophotometric Ellman's method
[2] = target: T1, Acetylcholinesterase (Homo sapiens, UniProt P22303); assay: Inhibition of AChE (unknown origin)
[3] = test system: Helicobacter pylori; assay: Antibacterial activity against Helicobacter pylori assessed as reduction in bacterial growth incubated for 24 hrs by broth micro-dilution method; format: functional
[4] = test system: MIA PaCa-2; assay: Growth inhibition of human MIA PaCa-2 cells measured for 48 hrs by SRB assay; format: functional
[5] = Antioxidant activity assessed as DPPH radical scavenging activity incubated for 20 mins by spectrophotometric method; format: functional
[6] = test system: Bacillus subtilis; assay: Antibacterial activity against Bacillus subtilis assessed as zone of inhibition; format: functional
[7] = test system: Staphylococcus aureus; assay: Antibacterial activity against Staphylococcus aureus ATCC 25923 assessed as zone of inhibition by agar diffusion method; format: functional
[8] = test system: Proteus vulgaris; assay: Antimicrobial activity against Proteus vulgaris NCIM 2813 assessed as zone of inhibition incubated for 24 hrs by agar diffusion method; format: functional
[9] = test system: Staphylococcus epidermidis; assay: Antimicrobial activity against Staphylococcus epidermidis ATCC 12228 assessed as reduction in bacterial growth incubated for 24 hrs by Mueller-Hinton agar based analysis; format: functional
[10] = test system: Staphylococcus aureus; assay: Antimicrobial activity against Staphylococcus aureus […] assessed as reduction in bacterial growth incubated for 24 hrs by Mueller-Hinton agar based analysis; format: functional
[11] = test system: Pseudomonas aeruginosa; assay: Antibacterial activity against Pseudomonas aeruginosa ATCC 15442 assessed as reduction in bacterial growth incubated for 24 hrs by Mueller-Hinton agar based analysis; format: functional
[12] = test system: Escherichia coli; assay: Antibacterial activity against Escherichia coli assessed as reduction in bacterial growth incubated for 24 hrs by Mueller-Hinton agar based analysis; format: functional
[13] = test system: Escherichia coli; assay: microbe, parasite or virus in culture; conditions: ATCC 25922, 24 h
[14] = Antibacterial activity against Salmonella enterica subsp. enterica serovar Pullorum assessed as inhibition of bacterial growth incubated for 18 hrs by CLSI protocol based microbroth dilution method; format: functional
[15] = test system: Salmonella typhimurium; assay: Antibacterial activity against Salmonella typhimurium DT104 assessed as reduction in bacterial growth inhibition; format: functional, Salmonella enterica subsp. enterica serovar Typhimurium
[16] = test system: Salmonella enteritidis; assay: Antibacterial activity against Salmonella enterica subsp. enterica serovar Enteritidis assessed as reduction in bacterial growth inhibition; format: functional
[17] = test system: Escherichia coli; assay: Antibacterial activity against Escherichia coli assessed as reduction in bacterial growth inhibition; format: functional
[18] = test system: Clostridium perfringens; assay: Antibacterial activity against Clostridium perfringens assessed as reduction in bacterial growth inhibition; format: functional
[19] = target: T1, Acetylcholinesterase; assay: Inhibition of AChE (unknown origin) using acetylthiocholine iodide as substrate by Ellman's method
[20] = test system: Escherichia coli; assay: Antibacterial activity against Escherichia coli ATCC 25922 assessed as zone of inhibition incubated for 24 hrs by agar diffusion method; format: functional
[21] = test system: Phytophthora capsici; assay: Antifungal activity against Phytophthora capsici; format: functional, organism-based
[22] = target: Mushroom tyrosinase (Agaricus bisporus, UniProt O42713+Q00024+C7FF04+C7FF05); assay: Inhibition of mushroom tyrosinase using L-DOPA as substrate by spectrophotometric analysis; format: protein assay

Sequence of Cholinesterase (P06276 whole entry): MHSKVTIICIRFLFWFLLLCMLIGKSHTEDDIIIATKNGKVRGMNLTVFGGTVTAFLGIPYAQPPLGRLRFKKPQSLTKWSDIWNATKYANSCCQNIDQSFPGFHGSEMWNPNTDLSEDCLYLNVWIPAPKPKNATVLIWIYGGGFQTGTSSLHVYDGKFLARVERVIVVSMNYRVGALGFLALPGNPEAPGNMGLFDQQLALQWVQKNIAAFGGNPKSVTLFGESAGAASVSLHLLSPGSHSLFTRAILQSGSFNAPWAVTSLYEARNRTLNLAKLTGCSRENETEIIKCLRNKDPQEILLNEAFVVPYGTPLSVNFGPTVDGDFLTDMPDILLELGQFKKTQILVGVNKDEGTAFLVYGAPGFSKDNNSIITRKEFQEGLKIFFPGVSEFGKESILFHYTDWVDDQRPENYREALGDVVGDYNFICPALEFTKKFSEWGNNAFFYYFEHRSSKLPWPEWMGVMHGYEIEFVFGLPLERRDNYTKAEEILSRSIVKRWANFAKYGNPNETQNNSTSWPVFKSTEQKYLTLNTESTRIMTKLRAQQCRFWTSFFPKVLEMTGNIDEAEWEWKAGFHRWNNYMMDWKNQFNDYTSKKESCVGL
T1 sequence (P22303 whole entry): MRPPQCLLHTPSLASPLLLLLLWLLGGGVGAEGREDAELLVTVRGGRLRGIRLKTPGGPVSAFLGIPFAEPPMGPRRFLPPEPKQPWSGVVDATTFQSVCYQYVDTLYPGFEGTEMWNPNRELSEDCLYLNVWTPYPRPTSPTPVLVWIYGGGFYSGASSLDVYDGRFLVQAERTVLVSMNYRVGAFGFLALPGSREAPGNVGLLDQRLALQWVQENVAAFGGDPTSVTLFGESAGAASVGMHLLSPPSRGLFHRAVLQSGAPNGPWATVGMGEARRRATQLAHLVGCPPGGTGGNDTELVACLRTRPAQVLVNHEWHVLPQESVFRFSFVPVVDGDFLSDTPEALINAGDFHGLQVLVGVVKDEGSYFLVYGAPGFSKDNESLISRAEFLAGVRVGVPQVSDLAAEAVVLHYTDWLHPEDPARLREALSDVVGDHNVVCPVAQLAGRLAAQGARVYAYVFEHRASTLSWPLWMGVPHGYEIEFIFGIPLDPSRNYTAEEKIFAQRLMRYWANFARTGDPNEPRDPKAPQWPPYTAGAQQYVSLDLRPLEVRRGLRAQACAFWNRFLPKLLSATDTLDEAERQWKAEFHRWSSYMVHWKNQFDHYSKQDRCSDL

Cc1ccc(C(C)C)cc1OCC(=O)NCc1ccc2c(c1)OCO2
IC50 [1]: 50 nM | IC50 [2]: 1930 nM

Cc1cccc(COc2cc(C(C)C)ccc2C)c1
MIC [3]: 2 µg/mL (≈ 7.86 µM)

CCN(CC)C(=O)COc1cc(C(C)C)ccc1C
IC50 [1]: 50 nM | IC50 [2]: 1930 nM

Cc1cc(C)c(S(=O)(=O)N/N=C/c2c(C(C)C)ccc(C)c2O)c(C)c1
GI50 [4]: 10 µg/mL (≈ 26.7 µM)

Cc1cc(CO)c(C(C)C)cc1O
IC50 [5]: 156 µg/mL (≈ 865 µM)

Cc1ccc(C(C)C)cc1OCC(=O)Nc1cccc(Cl)c1
inhibition zone (IZ) [6]: 21 mm | inhibition zone (IZ) [7]: 17 mm | inhibition zone (IZ) [8]: 16 mm

CCSC[C@H](NC(C)=O)C(=O)Oc1cc(C(C)C)ccc1C
MIC [9]: 10 µg/mL (≈ 30.9 µM) | MIC [10]: 10 µg/mL (≈ 30.9 µM) | MIC [11]: 10 µg/mL (≈ 30.9 µM) | MIC [12]: 10 µg/mL (≈ 30.9 µM)

Cc1ccc(C(C)C)cc1OC(=O)Cc1ccccc1
MIC [13]: 11.7 µg/mL (≈ 43.6 µM)

Cc1ccc(C(C)C)cc1OC(=O)CC(C)C
MIC [13]: 11.7 µg/mL (≈ 49.9 µM)

Cc1ccc(C(C)C)cc1OC1CC[C@H](O)[C@@H](CO)O1 (stereo not given in full)
MIC [14]: 0.5 µg/mL (≈ 1.78 µM)

CCCCCCCCCCCC(=O)Oc1cc(C(C)C)ccc1C
MIC [15]: >10 %v/v | MIC [16]: >10 %v/v | MIC [17]: >10 %v/v | MIC [18]: <10 %v/v

CCN(CC)CC(O)COc1cc(C(C)C)ccc1C (stereo not given)
IC50 [19]: 136 nM

CC(=O)N[C@@H](CS)C(=O)Oc1cc(C(C)C)ccc1C
MIC [9]: 5 µg/mL (≈ 16.9 µM) | MIC [10]: 10 µg/mL (≈ 33.9 µM) | MIC [11]: 10 µg/mL (≈ 33.9 µM) | MIC [12]: 10 µg/mL (≈ 33.9 µM)

Cc1cc(S(=O)(=O)O)c(C(C)C)cc1O
MIC [15]: 0.75 %v/v | MIC [16]: 0.37 %v/v | MIC [17]: 0.75 %v/v | MIC [18]: 0.37 %v/v

COc1ccc(CCNC(=O)COc2cc(C(C)C)ccc2C)cc1OC
IC50 [1]: 50 nM | IC50 [2]: 1930 nM

Cc1ccc(C(C)C)cc1OCC(=O)NNS(=O)(=O)c1cccc(C(F)(F)F)c1
inhibition zone (IZ) [20]: 10 mm

CCCNC(=O)COc1cc(C(C)C)ccc1C
IC50 [1]: 50 nM | IC50 [2]: 1930 nM

Cc1cc(S(=O)(=O)[O-])c(C(C)C)cc1O.[K+]
MIC [15]: 1.25 %v/v | MIC [16]: 1.25 %v/v | MIC [17]: 5 %v/v | MIC [18]: 0.37 %v/v

Cc1ccc(C(C)C)cc1OCC(=O)N1Cc2ccccc2C1
IC50 [1]: 50 nM | IC50 [2]: 1930 nM

CCS(=O)(=O)Oc1cc(C(C)C)ccc1C
EC50 [21]: 0.0666 µg/mL (≈ 0.275 µM)

Cc1ccc(C(C)C)cc1OC(=O)COC(=O)/C=C/c1ccc(Cl)cc1
IC50 [22]: 6700 nM

CSCC[C@H](NC(C)=O)C(=O)Oc1cc(C(C)C)ccc1C
MIC [9]: 10 µg/mL (≈ 30.9 µM) | MIC [10]: 10 µg/mL (≈ 30.9 µM) | MIC [11]: 5 µg/mL (≈ 15.5 µM) | MIC [12]: 10 µg/mL (≈ 30.9 µM)

Cc1ccc(C(C)C)cc1OC(=O)COC(=O)c1ccc(O)cc1O
IC50 [22]: 6700 nM

CCCCCCCNC(=O)COc1cc(C(C)C)ccc1C
inhibition zone (IZ) [6]: 6 mm | inhibition zone (IZ) [8]: 7 mm

Cc1ccc(C(C)C)cc1OC(=O)c1ccccc1
MIC [13]: 11.7 µg/mL (≈ 46 µM)

Cc1ccc(C(C)C)cc1OC(=O)COC(=O)c1ccc(O)cc1
IC50 [22]: 14900 nM

C/C=C/C(=O)Oc1cc(C(C)C)ccc1C
MIC [13]: 11.7 µg/mL (≈ 53.6 µM)

Cc1ccc(C(C)C)cc1OC(=O)[C@@H]1CSCN1C(=O)C(F)(F)F
MIC [9]: 2.5 µg/mL (≈ 6.92 µM) | MIC [10]: 5 µg/mL (≈ 13.8 µM) | MIC [11]: 10 µg/mL (≈ 27.7 µM) | MIC [12]: 5 µg/mL (≈ 13.8 µM)

CNC(=O)COc1cc(C(C)C)ccc1C
IC50 [1]: 50 nM | IC50 [2]: 1930 nM

Cc1ccc(C(C)C)cc1OCC(=O)N/N=C/c1c(C(C)C)ccc(C)c1O
IC50 [5]: 0.16 µg/mL (≈ 0.418 µM)

Cc1ccc(C(C)C)cc1OC(=O)COC(=O)c1cccc(O)c1
IC50 [22]: 14900 nM

Cc1ccc(C(C)C)c(/C=N/Nc2cc(Cl)ncn2)c1O
GI50 [4]: 80 µg/mL (≈ 262 µM)

Cc1ccc(C(C)C)cc1OCC(=O)NC1CCCCC1
IC50 [1]: 50 nM | IC50 [2]: 1930 nM

Cc1ccc(C(C)C)c(/C=N/Nc2ccc(Cl)nn2)c1O
GI50 [4]: 80 µg/mL (≈ 262 µM)

C[Se]CC[C@H](NC(C)=O)C(=O)Oc1cc(C(C)C)ccc1C
MIC [9]: 5 µg/mL (≈ 13.5 µM) | MIC [10]: 10 µg/mL (≈ 27 µM) | MIC [11]: 5 µg/mL (≈ 13.5 µM) | MIC [12]: 5 µg/mL (≈ 13.5 µM)

Cc1ccc(C(C)C)cc1OCC(O)CNCCC1=CCCCC1 (stereo not given)
IC50 [19]: 136 nM
